Patent US8980874B2, “Method and composition for treating diabetic ketoacidosis” (Midwestern University, priority 2009, dated 2015)
“Also recorded” adds a separate entry of the source. Non-standard residues stand in square brackets, D forms with d. Residues, ends and D or L forms follow the SMILES beside them.

Legend:
rat model of DKA [1] = assay: Plasma ET-1 level (Enzyme Immunometric Assay) in diabetic ketoacidosis rats; assay type: in vivo
Method: In order to analyze the change in plasma ET-1 level during the treatment, blood samples were withdrawn through right femoral artery of the rats before and at the end of experiment and were collected into chilled EDTA tubes (1 mg/mL blood) containing aprotinin (500 KIU/mL of blood). The blood samples were centrifuged at 1,600×g for 15 minutes at 0° C. and plasma separated was stored at −70° C. until analyzed. ET-1 level was estimated using Assay's Design's Endothelin-1 Enzyme Immunometric Assay Kit (Nowicki et al., 2005; Brondani et al., 2007). Briefly, plasma samples and standards were added to wells coated with a monoclonal antibody specific for ET-1. The plate then was washed after 24 hours of incubation, leaving only bound ET-1 on the plate. A solution of horseradish peroxidase (HRP) labeled monoclonal antibody to ET-1 then was added, which binds to the ET-1 captured on the plate. The plate was incubated for 30 min, then washed to remove excess HRP labeled antibody. A solution of 3,3′,5,5′-tetramethylbenzidine (TMB) substrate was added, which generates a blue color when catalyzed by the HRP. Hydrochloric acid (1N) was added to stop the substrate reaction, and the resulting yellow color was read at 450 nm using DTX 800 Multimode detector. The data was analyzed with Multimode Detection Software (Beckman Coulter, Inc., Fullerton, Calif.). The measured optical density is directly proportional to the concentration of ET-1 in either standards/plasma. Blood samples from all the groups were collected before the start and at end of the treatment.
(§1) Group 4: Diabetic saline/insulin treated (D-Saline+insulin treated): Rats were injected with streptozotocin in citrate buffer (150 mg/kg ip) to induce diabetes and ketoacidosis. On day three, rats were treated with 1.5 U/kg regular insulin (Humulin® R (Regular human insulin, rDNA origin). On day four, saline and insulin treatment was carried out. Rats were infused via cannulated femoral vein saline, 0.9% NaCl at 80 mL/kg/hr and 1.5 U/kg/hr regular insulin for one hour. During the next two through four hours, rats were infused with saline, 0.9% NaCl at 40 mL/kg/hr and 1.5 U/kg/hr regular insulin (Yuen et al., 2008).
(§2) Group 5: Diabetic BMS-182874/saline/insulin treated (D-BMS+Saline+insulin treated): Rats were injected with streptozotocin in citrate buffer (150 mg/kg ip) to induce diabetes and ketoacidosis. On day three, rats were treated with 1.5 U/kg regular insulin. On day four, rats were administered a bolus dose of selective ETA receptor antagonist, BMS-182874 (9 mg/kg), then saline and insulin treatment was carried out. Rats were infused via cannulated femoral vein saline, 0.9% NaCl at 80 mL/kg/hr and 1.5 U/kg/hr regular insulin for one hour. During the next two through four hours rats were infused with saline, 0.9% NaCl at 40 mL/kg/hr and 1.5 U/kg/hr regular insulin.
(§3) Group 6: Diabetic BQ123/saline/insulin treated (D-BQ+saline+insulin treated): Same as above for Group 5, except BQ123 (1 mg/kg body weight) is used as a substitute for BMS-182874 (9 mg/kg).
(§4) Data are presented as mean±SEM. The significance of differences was estimated by one-way analysis of variance (intra group comparison with respect to base line data) and two-way analysis of variance (inter group comparison with respect to corresponding time points from each groups) followed by application of the Dunnett's Multiple Comparisons and Bonferroni test respectively. A P value of less than 0.05 was considered to be significant. The statistical analysis was processed with GraphPad Prism software Version 5.00.

rat model of DKA [2] = assay: Arterial blood gases, electrolytes, lactate and hematocrit in diabetic ketoacidosis rats; assay type: in vivo
From the text: Arterial blood pH, pO2, pCO2, Na^+, K^+, lactate, and hematocrit were monitored prior to, at one hour, and at the end of treatment. Blood samples were drawn from the arterial cannula using blood gas sampling syringes (Innovative Medical Technologies, Inc. Leawood, Kans.) and analyzed using a GEM Premier 3000 unit (Instrument Laboratory, Lexington, Mass.). Blood samples were withdrawn from the femoral artery for baseline reading prior to start of treatment, after the first hour of treatment, and then at the end of the treatment (fifth hour of experiment).
as §1, §2, §3, §4

rat model of DKA [3] = assay: Brain blood perfusion (Laser Doppler Flowmetry) in diabetic ketoacidosis rats; assay type: in vivo; settings: day 4, FIG. 6, antagonist given with saline+insulin, result in words
Method: A burr hole was drilled into the rat skull approximately 2 millimeters (mm) to the left of midline, being careful not to disturb the brain tissue itself. Cerebrovascular perfusion was measured via a fiber optic probe (PF407) applied to the surface of the rat brain. The probe was connected to a Periflux PF2b 4000 Laser Doppler Flowmetry unit (Perimed, Stockholm, Sweden). The perfusion was determined by measuring the passage of red blood cells through the capillaries.
as §1, §2, §3, §4

[4] = system: rats induced with neurogenic pulmonary edema; settings: cited from earlier work
[5] = system: intrathecal (IT) injection of ET-1 into rats; settings: pre-treatment, intrathecal ET-1 in rats; cited from earlier work
[6] = day 4, compared to diabetic untreated rats, result in words
[7] = saline+insulin, alone or after bolus BMS-182874 9 mg/kg or BQ123 1 mg/kg
[8] = saline+insulin, alone or after bolus BMS-182874 9 mg/kg or BQ123 1 mg/kg, instrument floor 6.80

## CC(C)C[C@@H]1NC(=O)[C@@H](C(C)C)NC(=O)[C@@H]2CCCN2C(=O)[C@@H](CC(=O)O)NC(=O)[C@@H](Cc2c[nH]c3ccccc23)NC1=O [BQ123, Cyclo(D-Trp-D-Asp-Pro-D-Val-Leu)] (cyclo(L[dW][dD]P[dV]))
Rat model of DKA [1]; baseline before treatment, mean±SEM
  plasma ET-1, Day 4 (pre tx): 15.78 ± 4.11 pg/mL
Rat model of DKA [1]; day 4, result in words (Table 4, FIG. 9)
  effect of treatment on plasma ET-1 level: did not significantly affect plasma ET-1 level
Rat model of DKA [1]; saline+insulin, alone or after bolus BMS-182874 9 mg/kg or BQ123 1 mg/kg, mean±SEM
  plasma ET-1, Day 4 (end of tx): 26.53 ± 5.52 pg/mL
Rat model of DKA [2]; baseline, instrument could not record pH below 6.80, mean±SEM
  arterial blood pH, Day 4 (pre-tx): 6.82 ± 0.02
Rat model of DKA [2]; baseline, mean±SEM
  arterial blood pCO2, Day 4 (pre-tx): 25.00 ± 3.7 mmHg
  arterial blood pO2, Day 4 (pre-tx): 130.2 ± 14.04 mmHg
  blood K+ level, Day 4 (pre-tx): 3.4 ± 0.45 mmol/L
  blood Na+ level, Day 4 (pre-tx): 140.00 ± 2.87 mmol/L
  blood hematocrit (Hct), Day 4 (pre-tx): 42.6 ± 4.81%
Rat model of DKA [2]; day 4, antagonist given with saline+insulin, result in words
  effect of treatment on arterial blood pH (acidosis): produced a significant improvement in arterial blood pH
Rat model of DKA [2]; [6]
  effect of treatment on blood K+ levels: significantly reduced the change in blood K^+ levels
  effect of treatment on blood lactate levels: significantly reduced the change in blood lactate levels
  effect of treatment on hematocrit: significantly reduced the hematocrit
Rat model of DKA [2]; [7]
  arterial blood pCO2, Day 4 (1 hour of tx): 23.6 ± 2.17 mmHg
  arterial blood pCO2, Day 4 (end of tx): 23.2 ± 1.95 mmHg
  arterial blood pO2, Day 4 (1 hour of tx): 128.4 ± 11.006 mmHg
  arterial blood pO2, Day 4 (end of tx): 141.2 ± 4.6 mmHg
  blood K+ level, Day 4 (1 hour tx): 2.04 ± 0.29 mmol/L
  blood K+ level, Day 4 (end of tx): 2.38 ± 0.34 mmol/L
  blood Na+ level, Day 4 (1 hour of tx): 147 ± 1.3 mmol/L
  blood Na+ level, Day 4 (end of tx): 150.04 ± 2.43 mmol/L
  blood hematocrit (Hct), Day 4 (1 hour of tx): 31.4 ± 2.97 %
  blood hematocrit (Hct), Day 4 (end of tx): 31.8 ± 2.21 %
Rat model of DKA [2]; [8]
  arterial blood pH, Day 4 (1 hour of tx): 6.81 ± 0.01
  arterial blood pH, Day 4 (end of tx): 6.91 ± 0.01
Rat model of DKA [3]
  effect on cerebral blood perfusion: significantly blocked; also recorded: prevented an insulin induced increase in cerebral blood perfusion
[4]
  effect on hypoxia and hypercapnea: ameliorated
[5]
  effect on pulmonary edema: prevented pulmonary edema
  reduction of mortality rate: 50%
